This is an account of results in patent publication US20250186456A1, “PYRIMIDINE-FUSED CYCLIC COMPOUND AND PREPARATION METHOD AND USE THEREOF” (Genfleet Therapeutics (Shanghai) Inc., priority 2021, published 2025).

Read-outs that look alike come from different tables or passages of the source.

Common to all, as to type: cell-based, human
The test system of test [1] is AsPC-1 cells (KRAS G12D mutation). The experiment in a line: Cell proliferation inhibition assay, 3D, CellTiter-Glo 3D, AsPC-1. To be noted: AsPC-1 3D sphere model, 5 days incubation. The source says:
(§1) AsPC-1 was purchased from ATCC; catalog No: CRL-1682; AGS was purchased from ATCC; catalog No: CRL-1739; RPMI1640 was purchased from Gibco; catalog No: 11875-093 2235123; F12K was purchased from Gibco; catalog No: 21127-022; FBS was purchased from Gibco; catalog No: 10099-141C; trypsin (containing EDTA) was purchased from Gibco; catalog No: 25200-072; CellTiter Glo-3D was purchased from Progema; catalog No: G9683; 384-well sphere plates were purchased from Corning; catalog No: 3830; white opaque 384-well plates were purchased from Corning; catalog No: 3570; cell counters were purchased from CHEMOMETEC; model: NC-200; microplate reader was purchased from PerkinElmer; model: Envison;
(§2) AsPC-1 is an endogenous human pancreatic cancer cell containing KRAS^G12D mutation, cultured in RPMI-1640 medium containing 10% FBS; AGS is a human gastric cancer cell line containing KRAS^G12D, cultured in F-12K medium containing 10% FBS. Cells in the logarithmic growth phase were taken, digested with trypsin (containing EDTA), collected, and counted. 800 AsPC-1 cells/well or 400 AGS cells/well, respectively, were seeded in a 384-well sphere plate and cultured overnight at 5% CO2 to establish a 3D cell model. 1000X stock solutions of compounds at a 3.16-fold concentration gradient of were prepared using DMSO, diluted 100-fold into a 10X compound stock solution using the medium described above. The 10X compound stock solution was added to each cell on 2nd day after cell seeding at a final concentration of 1X and a DMSO content of 0.1%. DMSO was used as a control in the experiment, and the medium was used as blank. After the addition of the compounds, the cells were incubated for 5 days. 30 μl of CellTiter-Glo work solution was added to each well, mixed well, and incubated for 30 minutes. After standing at room temperature for 30 minutes, 40 μl of the mixed solution was transferred to an opaque 384-well plate with a white clear bottom. Luminescence chemiluminescence value was read by a microplate reader, and the cell proliferation inhibition rate (IR (%)=(RLU control-RLU compound)/(RLU control-RLU blank)×100%) was calculated. The gradiently diluted concentration of the compounds and corresponding cell proliferation inhibition rate were fitted using XLFit four-parameters method, and the IC50 value was calculated. […] The results of some exemplary compounds are shown in Table 2 (“−” represents untested).

The test system of test [2] is p-ERK in AGS cells (KRAS G12D mutation). The experiment in a line: Cell p-ERK assay (HTRF, Advance ERK phospho-T202/Y204 kit). To be noted: AGS cells, 3 hours incubation with compound, HTRF, read-out: AGS p-ERK IC50. The method, then: AGS was purchased from ATCC; catalog No: CRL-1739; F12K was purchased from Gibco; catalog No: 21127-022; FBS was purchased from Gibco; catalog No: 10099-141C; trypsin (containing EDTA) was purchased from Gibco, catalog No: 25200-072; DMSO was purchased from VWRAMRESCO; catalog No: 0231-500 ML; 96-well cell culture plates were purchased from Corning; catalog No: 3599; white opaque 96-well plates were purchased from Cisbio; catalog No: 66PL96025; Advance ERK phospho-T202/Y204 kit was purchased from Cisbio; catalog No: 64AERPEH; cell counters were purchased from CHEMOMETEC; model No: NC-200; microplate reader was purchased from PerkinElmer; model No: Envison.
AGS is an endogenous human gastric adenocarcinoma cell line containing the KRAS^G12D mutation, cultured in F12K+10% FBS medium. On the first day of the experiment, cells in the logarithmic growth phase were taken, digested with trypsin (containing EDTA), collected, and counted. Approximately 20000 cells/well were seeded in a 96-well cell culture plate and cultured overnight in an incubator with 5% CO2. 1000X stock solutions of compounds at a 3.16-fold concentration gradient were prepared using DMSO, and diluted 200-fold into a 5X compound stock solution using the medium described above. The 5X compound stock solution was added to each cell culturing well the day after cell seeding at a final concentration of 1X and a DMSO content of 0.1%. DMSO was used as a control in the experiment. After the compound was added and the incubation was kept for 3 hours, the medium in the culture wells was removed. 50 μl of Cell lysis solution (from Advance ERK phospho-T202/Y204 kit, the same below) was added to each well, mixed well, and incubated for 30 minutes and then 16 μl of the mixed solution was transferred to a white opaque 96-well plate, another 16 μl of cell lysis solution was added to a well as a blank well. After transferring, 4 μl of p-ERK HTRF antibody mixture (from Advance ERK phospho-T202/Y204 kit) was added to each well. After incubation for 4 hours, HTRF fluorescence value (RLU) was read by a microplate reader, and p-ERK level inhibition rate (IR (%)=(RLU control-RLU compound)/(RLU control-RLU blank)×100%) of the compounds was calculated. The concentration of the compounds and corresponding cell p-ERK level inhibition rate were fitted using Prism 8 four-parameters method, and the IC50 value was calculated.
On the technique in general: TR-FRET usually uses a lanthanide donor and a delayed reading to cut background.

Another test relates to AGS cells (KRAS G12D). The test can be described thus: Cell proliferation inhibition assay, 3D, CellTiter-Glo 3D, AGS. To be noted: AGS 3D sphere model, 5 days incubation.
Excerpt: as §1, §2
A general note: Cellular ATP, detected with luciferase, serves as a proxy for viable cell number.

`C#Cc1c(F)ccc2cccc(-c3nc4c5c(nc(OC[C@]67CCCN6CCC7=C)nc5c3F)N3C[C@H]5CC[C@H](N5)[C@H]3[C@H](C(F)F)O4)c12` [Example Z648, (5R,5aS,6S,9R)-5-(difluoromethyl)-2-(8-etbynyl-7-fluoronaphthalen-1-yl)-1-fluoro-12-(((R)-1-methylenetetrahydro-1H-pyrrolizin-7a (5H)-yl)methoxy)-5a,6,7,8,9,10-hexahydro-5H-4-oxa-3,10a, 11,13,14-pentaaza-6,9-methanonaphtho[1,8-ab]heptalene]: the IC50 (as a rule, the concentration that inhibits the measured activity by half) in test [1] is 53.5 nM; in test [2], 14.6 nM; with AGS cells (KRAS G12D) it was 39.1 nM.

Regarding `C#Cc1c(Cl)ccc2cccc(-c3nc4c5c(nc(OCC67CCCN6CC(=C)C7)nc5c3F)N3C[C@H]5CC[C@H](N5)[C@H]3[C@H](C)O4)c12` (stereo partly drawn) [Example Z593, (5S,5aS,6S,9R)-2-(7-chloro-8-ethynylnaphthalen-1-yl)-1-fluoro-5-methyl-12-((2-methylenetetrahydro-1H-pyrrolizin-7a (5H)-yl)methoxy)-5a,6,7,8,9,10-hexahydro-5H-4-oxa-3,10a, 11,13, 14-pentaaza-6,9-methanonaphtho[1,8-ab]heptalene], the IC50 in test [1] (Homo sapiens, ASPC1, 120 h) amounted to 78.8 nM; in test [2] (Homo sapiens), 29 nM; in the test on AGS cells (KRAS G12D) (Homo sapiens, 120 h) it was 35.4 nM.

With `C#Cc1c(F)ccc2cc(O)cc(-c3nc4c5c(nc(OCC67CCCN6CC(F)(F)C7)nc5c3F)N3C[C@H]5CC[C@H](N5)[C@H]3[C@H](C)O4)c12` (stereo partly drawn) [Example Z723, 4-((5S,5aS,6S,9R)-12-((2,2-difluorotetrahydro-1H-pyrrolizin-7a (5H)-yl)methoxy)-1-fluoro-5-methyl-5a,6,7,8,9,10-hexahydro-5H-4-oxa-3,10a, 11,13,14-pentaaza-6,9-methanonaphtho[1,8-ab]heptalene-2-yl)-5-ethynyl-6-fluoronaphthalen-2-ol], the IC50 in test [1] (Homo sapiens, ASPC1, 120 h) amounted to 55.4 nM; in test [2] (Homo sapiens), 6.96 nM; in the test with AGS cells (KRAS G12D) (Homo sapiens, 120 h), 15.1 nM.

As for `C#Cc1cccc2cccc(-c3nc4c5c(nc(OC[C@@]67CCCN6C[C@H](F)C7)nc5c3F)N3C[C@H]5CC[C@H](N5)[C@H]3[C@H](CC)O4)c12` [Example Z387, (5S,5aS,6S,9R)-5-ethyl-2-(8-ethynylnaphthalen-1-yl)-1-fluoro-12-(((2R,7aS)-2-fluorotetrahydro-1H-pyrrolizin-7a (5H)-yl)methoxy)-5a,6,7,8,9,10-hexahydro-5H-4-oxa-3,10a, 11,13,14-pentaaza-6,9-methanonaphtho[1,8-ab]heptalene], the IC50 in test [1] (Homo sapiens, ASPC1, 120 h) worked out at 202 nM; in test [2] (Homo sapiens), 50.2 nM; in the test with AGS cells (KRAS G12D) (Homo sapiens, 120 h), 73.3 nM.

Take `C#Cc1cccc2cc(N)cc(-c3nc4c5c(nc(OCC6(CN7CCOCC7)CC6)nc5c3F)N3C[C@H]5CC[C@H](N5)[C@H]3[C@H](C)O4)c12` [Example Z700, 5-Ethynyl-4-((5S,5aS,6S,9R)-1-Fluoro-5-Methyl-12-((1-(Morpholinomethyl)Cyclopropyl)Methoxy)-5a,6,7,8,9,10-Hexahydro-5H-4-Oxa-3,10a, 11,13,14-Pentaaza-6,9-Methanonaphtho[1,8-Ab]Heptalen-2-Yl) Naphthalen-2-Amine]: the IC50 came out at 2.14 nM in test [1] (Homo sapiens, ASPC1, 120 h); 0.39 nM in test [2] (Homo sapiens); 1.91 nM in the test with AGS cells (KRAS G12D) (Homo sapiens, 120 h).

As for `C#Cc1cccc2cc(N)cc(-c3nc4c5c(nc(OC[C@@H]6CCCN6CC(F)F)nc5c3F)N3C[C@H]5CC[C@H](N5)[C@H]3[C@H](C)O4)c12` [Example Z733, 4-((5S,5aS,6S,9R)-12-(((S)-1-(2,2-difluoroethyl)pyrrolidin-2-yl)methoxy)-1-fluoro-5-methyl-5a,6,7,8,9,10-hexahydro-5H-4-oxa-3,10a,11,13,14-pentaaza-6,9-methanonaphtho[1,8-ab]heptalen-2-yl)-5-ethynylnaphthalen-2-amine], the IC50 in test [1] (Homo sapiens, ASPC1, 120 h) came to 267 nM; in test [2] (Homo sapiens) it was 76 nM; in the test with AGS cells (KRAS G12D) (Homo sapiens, 120 h), 297 nM.

Take `C=C1CCN2C[C@H](F)CC12COc1nc2c3c(nc(-c4cc(N)c(F)c5ccc(F)c(F)c45)c(F)c3n1)O[C@@H](C)[C@@H]1[C@@H]3CC[C@H](CN21)N3` (stereo partly drawn) [Example Z731, 1,5,6-trifluoro-4-((5S, 5aS,6S,9R)-1-fluoro-12-(((6R)-6-fluoro-1-methylenetetrahydro-1H-pyrrolizin-7a (5H)-yl)methoxy)-5-methyl-5a,6,7,8,9,10-hexahydro-5H-4-oxa-3,10a, 11,13,14-pentaaza-6,9-methanonaphtho[1,8-ab]heptalene-2-yl) naphthalen-2-amine]: the IC50 worked out at 15.8 nM in test [1] (Homo sapiens, ASPC1, 120 h); 1.6 nM in test [2] (Homo sapiens); 5.7 nM in the test on AGS cells (KRAS G12D) (Homo sapiens, 120 h).

For `C#Cc1cccc2cc(O)cc(-c3nc4c5c(nc(OC[C@@]67CCCN6C[C@H](F)C7)nc5c3F)N3C[C@H]5CC[C@H](N5)[C@H]3[C@H](CC)O4)c12` [Example Z386, 4-((5S,5aS,6S,9R)-5-Ethyl-1-Fluoro-12-(((2R,7aS)-2-Fluorotetrahydro-1H-Pyrrolizin-7a (5H)-Yl)Methoxy)-5a,6,7,8,9,10-Hexahydro-5H-4-Oxa-3,10a,11,13,14-Pentaaza-6,9-Methanonaphtho[1,8-Ab]Heptalen-2-Yl)-5-Ethynylnaphthalen-2-Ol], the IC50 in test [1] (Homo sapiens, ASPC1, 120 h) turned out to be 14.7 nM; in test [2] (Homo sapiens), 0.76 nM; with AGS cells (KRAS G12D) (Homo sapiens, 120 h), 2.4 nM.

As for `C#Cc1c(F)ccc2cccc(-c3nc4c5c(nc(OC[C@@]67CCCN6C[C@H]6C[C@H]67)nc5c3F)N3C[C@H]5CC[C@H](N5)[C@H]3[C@H](C)O4)c12` (single isomer, unassigned) [Example Z627-2], the IC50 in test [1] (Homo sapiens, ASPC1, 120 h) is 287 nM; in test [2] (Homo sapiens), 59.3 nM; with AGS cells (KRAS G12D) (Homo sapiens, 120 h), 83.4 nM.

For `C#Cc1cccc2cc(N)cc(-c3nc4c5c(nc(OC[C@@]67CCCN6CC(F)(F)C7)nc5c3F)N3C[C@H]5CC[C@H](N5)[C@H]3[C@H](C)O4)c12` (single isomer, unassigned) [Example Z735], the IC50 in test [1] (Homo sapiens, ASPC1, 120 h) is 18.1 nM; in test [2] (Homo sapiens) it was 5.62 nM; with AGS cells (KRAS G12D) (Homo sapiens, 120 h), 35.2 nM.

As to `C#Cc1c(F)ccc2cccc(-c3nc4c5c(nc(OC[C@]67CCCN6CCC7=C)nc5c3F)N3C[C@H]5CC[C@H](N5)[C@H]3[C@H](C)O4)c12` (single isomer, unassigned) [Example Z638], the IC50 in test [1] (Homo sapiens, ASPC1, 120 h) was found to be 32 nM; in test [2] (Homo sapiens), 7.79 nM; in the test with AGS cells (KRAS G12D) (Homo sapiens, 120 h), 19.7 nM.

Turning to `C#Cc1c(F)ccc2cc(O)cc(-c3nc4c5c(nc(OCC67CC(=C)CN6CC(=C)C7)nc5c3F)N3C[C@H]5CC[C@H](N5)[C@H]3CCO4)c12` [Example Z598], the IC50 in test [1] (Homo sapiens, ASPC1, 120 h) turned out to be 5.55 nM; in test [2] (Homo sapiens), 0.68 nM; with AGS cells (KRAS G12D) (Homo sapiens, 120 h), 1.23 nM.
